Laboratory results from ChEMBL document CHEMBL1126994, “Synthesis of myristic acid analogs with anti-HIV activity that may be resistant to metabolic processing by -oxidation” (1993).
Active and inactive are the calls of the source. The calls are words filed in the database; no cut-off is given here.

Columns and labels:
[1] = tested on: CCRF-CEM; test: Tested for the antiviral activity against HIV-1 infected CEM cells; assay type: functional; details: Homo sapiens, read-out: ID50 (the source's name)
[2] = tested on: CCRF-CEM; test: Tested for cytotoxicity against HIV-1 uninfected CEM cells; assay type: functional; details: Homo sapiens, read-out: TD50 (the source's name)
[3] = target: T1, Glycylpeptide N-tetradecanoyltransferase 1 (Homo sapiens) (UniProt P30419); test: In vitro production of Acylpeptide by human N-myristoyltransferase (NMT) assay
T1 sequence (whole entry): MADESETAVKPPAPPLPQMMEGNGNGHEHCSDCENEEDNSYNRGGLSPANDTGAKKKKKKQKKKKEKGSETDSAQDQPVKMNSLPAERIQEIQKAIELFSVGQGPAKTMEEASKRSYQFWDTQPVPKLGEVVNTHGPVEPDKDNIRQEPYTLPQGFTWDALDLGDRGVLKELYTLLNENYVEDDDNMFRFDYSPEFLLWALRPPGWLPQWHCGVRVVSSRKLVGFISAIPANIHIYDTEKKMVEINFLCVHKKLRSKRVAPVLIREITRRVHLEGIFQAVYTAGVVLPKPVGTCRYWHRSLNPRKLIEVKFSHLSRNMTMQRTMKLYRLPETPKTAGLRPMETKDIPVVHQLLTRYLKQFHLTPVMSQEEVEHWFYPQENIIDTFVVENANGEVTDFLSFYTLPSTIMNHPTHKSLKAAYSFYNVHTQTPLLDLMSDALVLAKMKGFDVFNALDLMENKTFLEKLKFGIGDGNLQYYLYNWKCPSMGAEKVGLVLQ

[4] = target: Glycylpeptide N-tetradecanoyltransferase (Saccharomyces cerevisiae) (UniProt P14743); test: Tested in vitro for the production of Acylpeptide by yeast N-myristoyltransferase (NMT) assay
Sequence of Glycylpeptide N-tetradecanoyltransferase (Saccharomyces cerevisiae) (P14743 whole entry, looked up): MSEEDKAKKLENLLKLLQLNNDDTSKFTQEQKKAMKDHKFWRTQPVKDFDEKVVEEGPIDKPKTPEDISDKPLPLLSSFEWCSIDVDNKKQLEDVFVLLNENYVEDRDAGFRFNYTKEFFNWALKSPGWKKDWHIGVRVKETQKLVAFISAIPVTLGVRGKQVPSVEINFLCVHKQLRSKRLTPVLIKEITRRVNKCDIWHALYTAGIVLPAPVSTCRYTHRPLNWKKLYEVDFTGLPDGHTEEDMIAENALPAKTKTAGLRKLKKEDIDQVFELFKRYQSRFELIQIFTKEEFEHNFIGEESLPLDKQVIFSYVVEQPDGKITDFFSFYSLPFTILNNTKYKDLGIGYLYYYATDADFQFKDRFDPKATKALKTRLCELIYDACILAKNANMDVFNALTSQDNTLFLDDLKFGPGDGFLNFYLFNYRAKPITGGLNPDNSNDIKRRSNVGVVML

[5] = tested on: Pseudomonas; test: Tested in vitro for the production of acyl-CoA by Acyl-CoA synthetase in Pseudomonas
[6] = species on record: Homo sapiens; test: Tested in vitro for the production of acyl-CoA of compound by Acyl-CoA synthetase in human
[7] = tested on: CCRF-CEM; test: Tested for the antiviral activity against HIV-1 infected CEM cells; Value ranges from 9-20; assay type: functional; details: Homo sapiens, read-out: ID50 (the source's name)
[8] = tested on: CCRF-CEM; test: Tested for the antiviral activity against HIV-1 infected CEM cells; Value ranges from 1-5; assay type: functional; details: Homo sapiens, read-out: ID50 (the source's name)
[9] = tested on: CCRF-CEM; test: Tested for the antiviral activity against HIV-1 infected CEM cells; NA means not active; assay type: functional, cell-based; details: Homo sapiens
[10] = tested on: CCRF-CEM; test: Tested for cytotoxicity against HIV-1 uninfected CEM cells; Value ranges from 80-190; assay type: functional; details: Homo sapiens, read-out: TD50 (the source's name)

IC50 [1] | Myristoylpeptide [3] | Myristoylpeptide [4] | MyristoylCoA [5] | MyristoylCoA [6] | IC50 [7] | IC50 [8] | SMILES | CC50 [2] | ID50 [9] | CC50 [10]
77 µM | < 5% | 107% |  |  |  |  | COCCCCCCCCC(O)CCC(=O)O (centres undefined) | > 400 µM |  | 
 | < 5% | < 5% | 114% | < 5% | 9 µM |  | COCCCCCCCCCC(O)CC(=O)O (centres undefined) | 280 µM |  | 
 | 5% | < 5% | 94% | < 5% |  | 1000 nM | COCCCCCCCCCC(F)CC(=O)O (centres undefined) | 300 µM |  | 
 | < 5% | 14% | 14% | 26% |  |  | COCCCCCCCCCCC(F)C(=O)O (centres undefined) | > 100 µM | inactive | 
 | 84% | 109% | 175% | 75% |  | 1000 nM | COCCCCCCCCCCCCC(=O)O |  |  | 80 µM
5 µM | 5% | 7% | 78% | 12% |  |  | COCCCCCCCCC/C=C/C(=O)O | > 80 µM |  | 
